According to ChEMBL document CHEMBL4482308, “Ghrelin o-acyltransferase inhibitors” (2017):
Calls of active or inactive are those of the source. No cut-off for these calls is given here.

Columns and labels:
[1] = target: T1, Membrane-bound ghrelin O-acyltransferase MBOAT4 (Mus musculus) (UniProt P0C7A3); assay: Inhibition of mouse GOAT expressed in HEK293FT cells co-expressing pre-proghrelin assessed as reduction in ghrelin octanoylation up to 1 uM incubated for 24 hrs by ELISA; type: cell-based
T1 sequence (whole entry): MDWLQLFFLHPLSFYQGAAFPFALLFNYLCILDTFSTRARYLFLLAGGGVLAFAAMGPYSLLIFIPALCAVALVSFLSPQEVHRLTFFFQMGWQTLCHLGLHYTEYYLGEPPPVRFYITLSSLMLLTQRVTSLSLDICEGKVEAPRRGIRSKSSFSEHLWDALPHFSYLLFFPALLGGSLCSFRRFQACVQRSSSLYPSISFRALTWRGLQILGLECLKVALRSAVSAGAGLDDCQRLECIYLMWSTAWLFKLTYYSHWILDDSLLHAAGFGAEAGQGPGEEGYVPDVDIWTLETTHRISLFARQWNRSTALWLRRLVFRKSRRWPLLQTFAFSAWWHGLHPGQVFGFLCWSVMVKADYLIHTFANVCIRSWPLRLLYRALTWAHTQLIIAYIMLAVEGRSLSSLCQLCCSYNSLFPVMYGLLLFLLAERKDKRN

[2] = Cytotoxicity in HEK293FT cells co-expressing mouse GOAT and pre-proghrelin assessed as reduction in cell viability incubated for 24 hrs by alamar blue assay; type: cell-based; settings: human, read-out: LD50

SMILES	inhibition [1]	CC50 at 24 h [2]
CC1(C)CC[C@]2(C(=O)O)CC[C@]3(C)[C@H](C(=O)C=C4[C@@]5(C)C=C(C#N)C(=O)C(C)(C)[C@@H]5CC[C@]43C)[C@@H]2C1	inactive	
COC(=O)[C@]12CCC(C)(C)C[C@H]1[C@H]1C(=O)C=C3[C@@]4(C)C=C(C#N)C(=O)C(C)(C)[C@@H]4CC[C@@]3(C)[C@]1(C)CC2 [BARDOXOLONE METHYL]		≥ 10 µM
CCNC(=O)[C@]12CCC(C)(C)C[C@H]1[C@H]1C(=O)C=C3[C@@]4(C)C=C(C#N)C(=O)C(C)(C)[C@@H]4CC[C@@]3(C)[C@]1(C)CC2		≥ 10 µM
